Test results reported in US8859535B2, “Hydroxy substituted isoquinolinone derivatives” (Novartis AG, priority 2011, dated 2014).

What was measured:
Assay type in all cases: binding
[1] = target: T1, human MDM2 protein (amino acids 2-188) (Homo sapiens, UniProt Q00987); test: p53-MDM2 TR-FRET assay (p53-MDM2 Assay 1); conditions: 1.25 nM MDM2-biotinylated, 10 nM Cy5-p53 peptide; read-out: IC50 (μM) of p53-Hdm2 inhibition (TR-FRET) Assay 1
T1 construct: human MDM2 protein (amino acids 2-188); made in house
Procedure, shortened: (§1)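 Peptide displacement read as 665/620 nm TR-FRET ratio (excitation 340 nm) after 15 min room temperature with 10 nM Cy5-p53 aa18-26, following 15 min preincubation of Eu-streptavidin (0.625 nM) with biotinylated MDM4 aa 2-185 (2.5 nM) or MDM2 aa 2-188 (1.25 nM); IC50 curve-fitted. MDM2 Assay 2: MDM2 and Eu-streptavidin each 0.1 nM.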

[2] = target: T1, human MDM2 protein (amino acids 2-188); test: p53-MDM2 TR-FRET assay, modified (p53-MDM2 Assay 2); conditions: 0.1 nM MDM2, 0.1 nM Europium labeled streptavidin; read-out: IC50 (nM) of p53-Hdm2 inhibition (TR-FRET) Assay 2
Experimental: Time Resolved Fluorescence Energy Transfer (TR-FRET) Assay
The inhibition of p53-MDM2 and p53-MDM4 interactions is measured by time resolved fluorescence energy transfer (TR-FRET). Fluorescence energy transfer (or Foerster resonance energy transfer) describes an energy transfer between donor and acceptor fluorescent molecules. For this assay, human MDM2 protein (amino acids 2-188) and human MDM4 protein (amino acids 2-185), tagged with a C-terminal biotin moiety, are used in combination with a Europium labeled streptavidin (Perkin Elmer, Inc., Waltham, Mass., USA) serving as the donor fluorophore. The p53 derived, Cy5 labeled peptide Cy5-TFSDLWKLL (p53 aa18-26) is the energy acceptor. Upon excitation of the donor molecule at 340 nm, binding interaction between MDM2 or MDM4 and the p53 peptide induces energy transfer and enhanced response at the acceptor emission wavelength at 665 nm. Disruption of the formation of the p53-MDM2 or p53-MDM4 complex due to an inhibitor molecule binding to the p53 binding site of MDM2 or MDM4 results in increased donor emission at 620 nm. The ratiometric FRET assay readout is calculated from the raw data of the two distinct fluorescence signals measured in time resolved mode (fluorescence 665 nm/fluorescence 620 nm×1000).
After addition of 1.25 nM MDM2-biotinylated or 2.5 nM MDM4-biotinylated (internal preparations), and 0.625 nM Europium labeled streptavidin (Perkin Elmer), the solution is pre-incubated for 15 minutes at room temperature, then 10 nM Cy5-p53 peptide (internal preparation) is added before an incubation at room temperature for 15 minutes prior to reading the plate. For measurement of samples, a Victor II microplate reader (Perkin Elmer) is used with the following settings: Excitation 340 nm, Emission Donor 620 nm and Emission Acceptor 665 nm. IC50 values are calculated by curve fitting using XLfit. If not specified, reagents are purchased from Sigma-Aldrich Chemie GmBH, Buchs, Switzerland.
This assay was used to evaluate compounds displaying inhibition of p53-MDM2 interaction and p53-MDM4 interaction at IC50s of 0.005 to 50 μM (p53-MDM2 Assay 1 and p53-MDM4 Assay 1, respectively). For selected compounds displaying IC50s between […] on MDM2, a slightly modified assay is used with the following adaptations: 0.1 nM MDM2, 0.1 nM Europium labeled streptavidin and Tecan genios Pro is used as a microplate reader for the fluorescence measurements (p53-MDM2 Assay 2).

[3] = target: T2, human MDM4 protein (amino acids 2-185) (Homo sapiens, UniProt O15151); test: p53-MDM4 TR-FRET assay (p53-MDM4 Assay 1); conditions: 2.5 nM MDM4-biotinylated, 10 nM Cy5-p53 peptide; read-out: IC50 (μM) of p53-Hdm4 inhibition (TR-FRET) Assay 1
T2 construct: human MDM4 protein (amino acids 2-185); made in house
T2 sequence (O15151 2-185): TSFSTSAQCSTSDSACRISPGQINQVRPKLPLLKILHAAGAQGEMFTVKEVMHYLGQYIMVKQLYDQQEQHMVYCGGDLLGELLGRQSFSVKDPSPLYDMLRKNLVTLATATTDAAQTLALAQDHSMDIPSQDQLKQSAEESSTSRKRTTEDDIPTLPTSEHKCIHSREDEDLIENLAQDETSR
Procedure, shortened: as §1

T1 sequence (Q00987 2-188): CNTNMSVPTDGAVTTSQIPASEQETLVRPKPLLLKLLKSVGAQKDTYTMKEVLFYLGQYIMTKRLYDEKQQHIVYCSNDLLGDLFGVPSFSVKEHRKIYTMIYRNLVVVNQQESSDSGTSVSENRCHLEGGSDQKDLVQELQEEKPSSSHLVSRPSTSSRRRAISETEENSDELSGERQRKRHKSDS

Compound	IC50 [1]	IC50 [2]	IC50 [3]
COc1cc2c(cc1OC(C)C)[C@H](c1ccc(Cl)cc1)N(c1ccc(C(C)(O)C3CCN(C(=O)F)CC3)cc1)C(=O)C2 (mixture of isomers) [Example 90, 4-(1-{4-[(S)-1-(4-Chloro-phenyl)-7-isopropoxy-6-methoxy-3-oxo-3,4-dihydro-1H-isoquinolin-2-yl]-phenyl}-1-hydroxy-ethyl)-piperidine-1-carbonyl fluoride]	0.0026 µM	1.38 nM	2.31 µM
COc1cc2c(cc1OC(C)C)[C@H](c1ccc(Cl)cc1)N(c1ccc(C(C)(O)C3CCN(C(=O)COC(C)=O)CC3)cc1)C(=O)C2 (mixture of isomers) [Example 91, Acetic acid 2-[4-(1-{4-[(S)-1-(4-chloro-phenyl)-7-isopropoxy-6-methoxy-3-oxo-3,4-dihydro-1H-isoquinolin-2-yl]-phenyl}-1-hydroxy-ethyl)-piperidin-1-yl]-2-oxo-ethyl ester]	0.0023 µM	1.85 nM	2.16 µM
COc1cc2c(cc1OC(C)C)[C@H](c1ccc(Cl)cc1)N(c1ccc(C(C)(O)C3CCN(C(=O)CO)CC3)cc1)C(=O)C2 (mixture of isomers) [Example 92, (S)-1-(4-Chloro-phenyl)-2-(4-{1-hydroxy-1-[1-(2-hydroxy-acetyl)-piperidin-4-yl]-ethyl}-phenyl)-7-isopropoxy-6-methoxy-1,4-dihydro-2H-isoquinolin-3-one]	0.0036 µM	1.84 nM	2.71 µM
COc1cc2c(cc1OC(C)C)[C@H](c1ccc(Cl)cc1)N(c1ccc(C(C)(O)C3CC4CCC(C3)O4)cc1)C(=O)C2 (mixture of isomers) [Example 158, (S)-1-(4-Chloro-phenyl)-2-{4-[1-hydroxy-1-(8-oxabicyclo[3.2.1]oct-3-yl)-ethyl]-phenyl}-7-isopropoxy-6-methoxy-1,4-dihydro-2H-isoquinolin-3-one]	0.0028 µM	1.2 nM	2.84 µM
COc1cc2c(cc1OC(C)C)[C@H](c1ccc(Cl)cc1)N(c1ccc(C(C)(O)C3CC4CCCC(C3)S4(=O)=O)cc1)C(=O)C2 (mixture of isomers) [Example 175, (S)-1-(4-Chloro-phenyl)-2-{4-[1-(9,9-dioxo-9-thia-bicyclo[3.3.1]non-3-yl)-1-hydroxy-ethyl]-phenyl}-7-isopropoxy-6-methoxy-1,4-dihydro-2H-isoquinolin-3-one]	0.0028 µM	1.92 nM	3.58 µM
COc1cc2c(cc1OC(C)C)[C@H](c1ccc(Cl)cc1)N(c1ccc([C@@](C)(O)C3CCN(C)CC3)cc1)C(=O)C2 (single isomer, unassigned) [Example 94]	0.0016 µM	1.06 nM	1.75 µM
CC[C@@H](C)Oc1cc2c(cc1OC)CC(=O)N(c1ccc(C(C)(O)C3CCN(C(C)=O)CC3)cc1)[C@H]2c1ccc(Cl)cc1 (stereo partly drawn) [Example 52, (S)-2-{4-[1-(1-Acetyl-piperidin-4-yl)-1-hydroxy-ethyl]-phenyl}-7-((R)-sec-butoxy)-1-(4-chloro-phenyl)-6-methoxy-1,4-dihydro-2H-isoquinolin-3-one]	0.0018 µM	1.98 nM	2.32 µM
COC(=O)N1CCC(C(C)(O)c2ccc(N3C(=O)Cc4cc(OC)c(OC(C)C)cc4[C@@H]3c3ccc(Cl)cc3)cc2)CC1 (stereo partly drawn) [Example 76, 4-(1-{4-[(S)-1-(4-Chloro-phenyl)-7-isopropoxy-6-methoxy-3-oxo-3,4-dihydro-1H-isoquinolin-2-yl]-phenyl}-1-hydroxy-ethyl)-piperidine-1-carboxylic acid methyl ester]	0.0017 µM	2.34 nM	1.91 µM
COc1cc2c(cc1OC(C)C)[C@H](c1ccc(Cl)cc1)N(c1ccc(C(C)(O)C3CCN(CCO)CC3)cc1)C(=O)C2 (stereo partly drawn) [Example 93, (S)-1-(4-Chloro-phenyl)-2-(4-{1-hydroxy-1-[1-(2-hydroxy-ethyl)-piperidin-4-yl]-ethyl}-phenyl)-7-isopropoxy-6-methoxy-1,4-dihydro-2H-isoquinolin-3-one]	0.0027 µM	2.3 nM	3.35 µM
COc1cc2c(cc1OC(C)C)[C@H](c1ccc(Cl)cc1)N(c1ccc(C(C)(O)C3CCN(C4COC4)CC3)cc1)C(=O)C2 (stereo partly drawn) [Example 96, (S)-1-(4-Chloro-phenyl)-2-{4-[1-hydroxy-1-(1-oxetan-3-yl-piperidin-4-yl)-ethyl]-phenyl}-7-isopropoxy-6-methoxy-1,4-dihydro-2H-isoquinolin-3-one]	0.0021 µM	1.35 nM	2.18 µM
COc1cc2c(cc1OC(C)C)[C@H](c1ccc(Cl)cc1)N(c1ccc(C(C)(O)C3CCN(C4CCC4)CC3)cc1)C(=O)C2 (stereo partly drawn) [Example 97, (S)-1-(4-Chloro-phenyl)-2-{4-[1-(1-cyclobutyl-piperidin-4-yl)-1-hydroxy-ethyl]-phenyl}-7-isopropoxy-6-methoxy-1,4-dihydro-2H-isoquinolin-3-one]	0.0025 µM	2.4 nM	2.43 µM
COc1cc2c(cc1OC(C)C)[C@H](c1ccc(Cl)cc1)N(c1ccc(C(C)(O)C3CC4CCC(C3)N4C)cc1)C(=O)C2 (stereo partly drawn) [Example 105, (S)-1-(4-Chloro-phenyl)-2-{4-[1-hydroxy-1-(8-methyl-8-aza-bicyclo[3.2.1]oct-3-yl)-ethyl]-phenyl}-7-isopropoxy-6-methoxy-1,4-dihydro-2H-isoquinolin-3-one]	0.0043 µM	2.25 nM	4.12 µM
COc1cc2c(cc1OC(C)C)[C@H](c1ccc(Cl)cc1)N(c1ccc(C(C)(O)C3CC4CCC(C3)N4CC(F)(F)F)cc1)C(=O)C2 (stereo partly drawn) [Example 106, (S)-1-(4-Chloro-phenyl)-2-(4-{1-hydroxy-1-[8-(2,2,2-trifluoro-ethyl)-8-aza-bicyclo[3.2.1]oct-3-yl]-ethyl}-phenyl)-7-isopropoxy-6-methoxy-1,4-dihydro-2H-isoquinolin-3-one]	0.0049 µM	1.97 nM	8.84 µM
COc1cc2c(cc1OC(C)C)[C@H](c1ccc(Cl)cc1)N(c1ccc(C(C)(O)C3CC4CCC(C3)N4S(C)(=O)=O)cc1)C(=O)C2 (stereo partly drawn) [Example 107, (S)-1-(4-Chloro-phenyl)-2-{4-[1-hydroxy-1-(8-methanesulfonyl-8-aza-bicyclo[3.2.1]oct-3-yl)-ethyl]-phenyl}-7-isopropoxy-6-methoxy-1,4-dihydro-2H-isoquinolin-3-one]	0.0028 µM	1.55 nM	2.48 µM
COc1cc2c(cc1OC(C)C)[C@H](c1ccc(Cl)cc1)N(c1ccc(C(C)(O)C3CC4CCC(C3)N4C(=O)N(C)C)cc1)C(=O)C2 (stereo partly drawn) [Example 108, 3-(1-{4-[(S)-1-(4-Chloro-phenyl)-7-isopropoxy-6-methoxy-3-oxo-3,4-dihydro-1H-isoquinolin-2-yl]-phenyl}-1-hydroxy-ethyl)-8-aza-bicyclo[3.2.1]octane-8-carboxylic acid dimethylamide]	0.0027 µM	2.07 nM	1.99 µM
CNC(=O)N1C2CCC1CC(C(C)(O)c1ccc(N3C(=O)Cc4cc(OC)c(OC(C)C)cc4[C@@H]3c3ccc(Cl)cc3)cc1)C2 (stereo partly drawn) [Example 109, 3-(1-{4-[(S)-1-(4-Chloro-phenyl)-7-isopropoxy-6-methoxy-3-oxo-3,4-dihydro-1H-isoquinolin-2-yl]-phenyl}-1-hydroxy-ethyl)-8-aza-bicyclo[3.2.1]octane-8-carboxylic acid methylamide]	0.0024 µM	1.7 nM	2.5 µM
